Source: patent US20220298158A1, “POLYMORPH OF VENETOCLAX AND METHOD FOR PREPARING THE POLYMORPH” (Johnson Matthey Public Limited Company, priority 2019, published 2022)

Assay: Stability study of venetoclax anhydrate under storage conditions (XRPD before and after storage)
Assay type: physicochemical
Description: (§1) FIG. 6 is representative XRPD overlay of venetoclax anhydrate before storage (bottom), venetoclax anhydrate after storage at 25° C./97% RH (relative humidity) for 7 days (middle), and venetoclax anhydrate after storage at 40° C./75% RH for 7 days (top).
X-Ray Powder Diffraction patterns were collected on a Bruker AXS C2 GADDS diffractometer using Cu Kα radiation (40 kV, 40 mA), automated XYZ stage, laser video microscope for auto-sample positioning and a HiStar 2-dimensional area detector. X-ray optics consists of a single Göbel multilayer mirror coupled with a pinhole collimator of 0.3 mm.
The beam divergence, i.e. the effective size of the X-ray beam on the sample, was approximately 4 mm. A θ-θ continuous scan mode was employed with a sample—detector distance of 20 cm which gives an effective 2θ range of 3.2° — 29.7° . Typically the sample would be exposed to the X-ray beam for 120 seconds. The software used for data collection was GADDS for XP/2000 4.1.43 and the data were analysed and presented using Diffrac Plus EVA v15.0.0.0.
as §1, with “Stability studies of venetoclax anhydrate under two storage conditions were also carried out. FIG.” for “FIG.”, “C/97%” for “C./97%”, “C/75%” for “C./75%”, “(top). […]” for “(top).”

time the anhydrate remains stable on storage (XRPD overlay) (storage at 25° C/97% RH (relative humidity) for 7 days): at least 7 days
time the anhydrate remains stable on storage (XRPD overlay) (storage at 40° C/75% RH for 7 days): at least 7 days
Structure (SMILES): CC1(C)CCC(CN2CCN(c3ccc(C(=O)NS(=O)(=O)c4ccc(NCC5CCOCC5)c([N+](=O)[O-])c4)c(Oc4cnc5[nH]ccc5c4)c3)CC2)=C(c2ccc(Cl)cc2)C1 [venetoclax anhydrate, 4-(4-{[2-(4-chlorophenyl)-4,4-dimethylcyclohex-1-en-1-yl]methyl}piperazin-1-yl)-N-({3-nitro-4-[(tetrahydro-2H-pyran-4-ylmethyl)amino]phenyl}sulfonyl)-2-(1H-pyrrolo[2,3-b]pyridine-5-yloxy)benzamide]
